Source: article PMC9304322, “Targeting retinoic acid receptor alpha-corepressor interaction activates chaperone-mediated autophagy and protects against retinal degeneration” (Nature Communications, 2022)
Several values for one entry are separate records, joined by “and”; a condition that tells them apart may be missing. Equal entries are not always repeated.

Experiments:
[1] = Pharmacokinetic analysis, plasma and brain;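 on Fig. 3b level, single animals 1-3: brain concentration in ng/g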; type: in vivo, ICR (CD-1) male mice; parameters: Fig. 3a level, single animals 1-3 / Fig. 3b level, single animals 1-3: unit not given here; conditions: for Fig. 3a level, single animals 1-3 / Fig. 3b level, single animals 1-3: IV, Time 0.083 h; for predicted brain concentration: intraperitoneal 30 mg/kg bw, converted from Cmax or AUC (CA39: AUC and extended half-life)
NIH3T3 cells = assay: Microarray transcriptional changes; type: cell-based, mouse; parameters: Ratio of expression relative to untreated cells, Crtam (NM_019465) / Ratio of expression relative to untreated cells, 4930594C11Rik (NR_024017) / Ratio of expression relative to untreated cells, Non-coding chr6:36765550-36793825_F / Ratio of expression relative to untreated cells, Anti-sense ENSMUST00000097448 / Ratio of expression relative to untreated cells, Non-coding chr1:64232564-64349617_R / Ratio of expression relative to untreated cells, Foxa2 (NM_010446) / Ratio of expression relative to untreated cells, Non-coding chr15:83266264-83294664_F / Ratio of expression relative to untreated cells, Nqo1 (NM_008706) / Ratio of expression relative to untreated cells, Gsta4 (NM_010357) / Ratio of expression relative to untreated cells, E330014E10Rik (NM_001122668) / Ratio of expression relative to untreated cells, AU017674 (CK334688) / Ratio of expression relative to untreated cells, Defb12 (NM_152802) / Ratio of expression relative to untreated cells, Non-coding chr1:138570107-138632310_F / Ratio of expression relative to untreated cells, Non-coding chr16:39984031-40081556_R / Ratio of expression relative to untreated cells, Gm5106 (XR_168418) / Ratio of expression relative to untreated cells, Ushbp1 (NM_181418) / Ratio of expression relative to untreated cells, Non-coding chr11:70196232-70203307_R / Ratio of expression relative to untreated cells, Eno4 (NM_178689) / Ratio of expression relative to untreated cells, Non-coding chr13:64044376-64045368_R / Ratio of expression relative to untreated cells, Dsg4 (AY170623) / Ratio of expression relative to untreated cells, Stx2 (NM_007941) / Ratio of expression relative to untreated cells, Non-coding chr12:52944867-52971992_R / Ratio of expression relative to untreated cells, Htr1b (NM_010482) / Ratio of expression relative to untreated cells, Non-coding chr16:44717531-44724206_F / Ratio of expression relative to untreated cells, Non-coding chr5:54053328-54053870_F: unit not given here; conditions: 20μM for 24 h; for Ratio of expression relative to untreated cells, 4930594C11Rik (NR_024017) / Ratio of expression relative to untreated cells, Anti-sense ENSMUST00000097448 / Ratio of expression relative to untreated cells, Crtam (NM_019465) / Ratio of expression relative to untreated cells, Defb12 (NM_152802) / Ratio of expression relative to untreated cells, Dsg4 (AY170623) / Ratio of expression relative to untreated cells, Eno4 (NM_178689) / Ratio of expression relative to untreated cells, Foxa2 (NM_010446) / Ratio of expression relative to untreated cells, Gm5106 (XR_168418) / Ratio of expression relative to untreated cells, Htr1b (NM_010482) / Ratio of expression relative to untreated cells, Non-coding chr1:64232564-64349617_R / Ratio of expression relative to untreated cells, Non-coding chr5:54053328-54053870_F / Ratio of expression relative to untreated cells, Non-coding chr6:36765550-36793825_F / Ratio of expression relative to untreated cells, Non-coding chr11:70196232-70203307_R / Ratio of expression relative to untreated cells, Non-coding chr12:52944867-52971992_R / Ratio of expression relative to untreated cells, Non-coding chr13:64044376-64045368_R / Ratio of expression relative to untreated cells, Non-coding chr15:83266264-83294664_F / Ratio of expression relative to untreated cells, Non-coding chr16:39984031-40081556_R / Ratio of expression relative to untreated cells, Non-coding chr16:44717531-44724206_F / Ratio of expression relative to untreated cells, Ushbp1 (NM_181418) / Ratio of expression relative to untreated cells, AU017674 (CK334688) / Ratio of expression relative to untreated cells, E330014E10Rik (NM_001122668) / Ratio of expression relative to untreated cells, Gsta4 (NM_010357) / Ratio of expression relative to untreated cells, Non-coding chr1:138570107-138632310_F / Ratio of expression relative to untreated cells, Nqo1 (NM_008706): NIH3T3; for Ratio of expression relative to untreated cells, 4930594C11Rik (NR_024017) / Ratio of expression relative to untreated cells, Anti-sense ENSMUST00000097448 / Ratio of expression relative to untreated cells, Crtam (NM_019465) / Ratio of expression relative to untreated cells, Defb12 (NM_152802) / Ratio of expression relative to untreated cells, Dsg4 (AY170623) / Ratio of expression relative to untreated cells, Eno4 (NM_178689) / Ratio of expression relative to untreated cells, Foxa2 (NM_010446) / Ratio of expression relative to untreated cells, Gm5106 (XR_168418) / Ratio of expression relative to untreated cells, Htr1b (NM_010482) / Ratio of expression relative to untreated cells, Non-coding chr1:64232564-64349617_R / Ratio of expression relative to untreated cells, Non-coding chr5:54053328-54053870_F / Ratio of expression relative to untreated cells, Non-coding chr6:36765550-36793825_F / Ratio of expression relative to untreated cells, Non-coding chr11:70196232-70203307_R / Ratio of expression relative to untreated cells, Non-coding chr12:52944867-52971992_R / Ratio of expression relative to untreated cells, Non-coding chr13:64044376-64045368_R / Ratio of expression relative to untreated cells, Non-coding chr15:83266264-83294664_F / Ratio of expression relative to untreated cells, Non-coding chr16:39984031-40081556_R / Ratio of expression relative to untreated cells, Non-coding chr16:44717531-44724206_F / Ratio of expression relative to untreated cells, Ushbp1 (NM_181418): direction Down; for Ratio of expression relative to untreated cells, AU017674 (CK334688) / Ratio of expression relative to untreated cells, E330014E10Rik (NM_001122668) / Ratio of expression relative to untreated cells, Gsta4 (NM_010357) / Ratio of expression relative to untreated cells, Non-coding chr1:138570107-138632310_F / Ratio of expression relative to untreated cells, Nqo1 (NM_008706): direction Up
Procedure: Total RNA of the treated cells was extracted using TRIzol (Invitrogen) and purified with RNeasy chromatography (Qiagen). Cy3-labeled RNA (0.6 μg) from each condition was hybridized to Agilent Mouse 8x60K. Data were processed using the oligo package and normalized using Robust Multiarray Average (RMA) method. […] Pathway analysis was performed using the STRING database ([…]).

[2] = In vitro stability in human liver microsomes; type: in vitro ADME; conditions: in words
Procedure: In vitro solubility in the following conditions A) HBSS/HEPES 10 mM/BSA 0.1% pH 6 B) HBSS/HEPES 10 mM/BSA 0.1% pH 7.4 C) TRIS/BSA 0.1% PBS (pH 7.4 and at indicated doses were measured by Nephelometry using the NEPHELOstar Galaxy apparatus (BMG Lab Technologies). In vitro stability in human, mouse and rat liver microsomes and permeability using a bidirectional permeability assay with CaCo-2 cells (pH 6.5/7.4) assays were performed with standard methodology and analyzed by LC-MS/MS. at SIMM-SERVIER joint Biopharmacy Laboratory. ADME properties for CA39 and CA77 were predicted by QikProp (Schrödinger, LLC, Releases 2016-2020) software.

Row | Compound | Fig. 3a level, single animals 1-3 [1] | Fig. 3b level, single animals 1-3 [1] | predicted brain concentration [1] | Ratio of expression relative to untreated cells, Stx2 (NM_007941) (NIH3T3 cells) | Ratio of expression relative to untreated cells, 4930594C11Rik (NR_024017) (NIH3T3 cells) | Ratio of expression relative to untreated cells, Anti-sense ENSMUST00000097448 (NIH3T3 cells) | Ratio of expression relative to untreated cells, Crtam (NM_019465) (NIH3T3 cells) | Ratio of expression relative to untreated cells, Defb12 (NM_152802) (NIH3T3 cells) | Ratio of expression relative to untreated cells, Dsg4 (AY170623) (NIH3T3 cells) | Ratio of expression relative to untreated cells, Eno4 (NM_178689) (NIH3T3 cells) | Ratio of expression relative to untreated cells, Foxa2 (NM_010446) (NIH3T3 cells) | Ratio of expression relative to untreated cells, Gm5106 (XR_168418) (NIH3T3 cells) | Ratio of expression relative to untreated cells, Htr1b (NM_010482) (NIH3T3 cells) | Ratio of expression relative to untreated cells, Non-coding chr1:64232564-64349617_R (NIH3T3 cells) | Ratio of expression relative to untreated cells, Non-coding chr5:54053328-54053870_F (NIH3T3 cells) | Ratio of expression relative to untreated cells, Non-coding chr6:36765550-36793825_F (NIH3T3 cells) | Ratio of expression relative to untreated cells, Non-coding chr11:70196232-70203307_R (NIH3T3 cells) | Ratio of expression relative to untreated cells, Non-coding chr12:52944867-52971992_R (NIH3T3 cells) | Ratio of expression relative to untreated cells, Non-coding chr13:64044376-64045368_R (NIH3T3 cells) | Ratio of expression relative to untreated cells, Non-coding chr15:83266264-83294664_F (NIH3T3 cells) | further results
1 | Clc1ccc2c(c1)OCC(c1ccc(-c3ccccc3)cc1)=N2 [CA39] | 52.0116 and 70.6516 and 60.713 | 52.0116 and 70.6516 and 60.713 | 10 to 20 µM | 0.118 | 0.02758 | 0.03251 | 0.02443 | 0.01369 | 0.04187 | 0.1079 | 0.05303 | 0.2892 | 0.02191 | 0.044 | 0.08567 | 0.01728 | 0.1333 | 0.02965 | 0.157 | 0.07415 | Ratio of expression relative to untreated cells, Non-coding chr16:39984031-40081556_R (NIH3T3 cells): 0.3908; Ratio of expression relative to untreated cells, Non-coding chr16:44717531-44724206_F (NIH3T3 cells): 0.01733; Ratio of expression relative to untreated cells, Ushbp1 (NM_181418) (NIH3T3 cells): 0.1898; Ratio of expression relative to untreated cells, AU017674 (CK334688) (NIH3T3 cells): 18.0101; Ratio of expression relative to untreated cells, E330014E10Rik (NM_001122668) (NIH3T3 cells): 1.584; Ratio of expression relative to untreated cells, Gsta4 (NM_010357) (NIH3T3 cells): 2.331; Ratio of expression relative to untreated cells, Non-coding chr1:138570107-138632310_F (NIH3T3 cells): 7.863; Ratio of expression relative to untreated cells, Nqo1 (NM_008706) (NIH3T3 cells): 1.3; metabolic stability with human liver microsomes [2]: high to intermediate
2 | CC(=O)Nc1ccc(C2=Nc3ccc(Cl)cc3OC2)cc1 [CA77] | 52.9 and 41.4 and 14.2 | 3773 and 2943 and 693 | 5 to 20 µM | 0.09232 | 0.0118 | 0.02606 | 0.02383 | 0.01656 | 0.02136 | 0.2317 | 0.03773 | 0.09934 | 0.04553 | 0.03926 | 0.08612 | 0.01829 | 0.1429 | 0.03376 | 0.1362 | 0.06682 | Ratio of expression relative to untreated cells, Non-coding chr16:39984031-40081556_R (NIH3T3 cells): 0.07815; Ratio of expression relative to untreated cells, Non-coding chr16:44717531-44724206_F (NIH3T3 cells): 0.03891; Ratio of expression relative to untreated cells, Ushbp1 (NM_181418) (NIH3T3 cells): 0.1648; Ratio of expression relative to untreated cells, AU017674 (CK334688) (NIH3T3 cells): 22.5451; Ratio of expression relative to untreated cells, E330014E10Rik (NM_001122668) (NIH3T3 cells): 33.8974; Ratio of expression relative to untreated cells, Gsta4 (NM_010357) (NIH3T3 cells): 18.7705; Ratio of expression relative to untreated cells, Non-coding chr1:138570107-138632310_F (NIH3T3 cells): 6.319; Ratio of expression relative to untreated cells, Nqo1 (NM_008706) (NIH3T3 cells): 4.968; metabolic stability with human liver microsomes [2]: high to intermediate
